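The compound was tested at five concentrations on cells cultured in 96-well plates, with a 48-hour exposure period. GI50 = concentration required for 50% inhibition of growth. At the TGI there is no net growth.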
Assays:
Test in all cases: NCI anticancer screen, dose series, 48 h
OVCAR-3 ovarian = tested on: OVCAR-3 ovarian
KM12 colon = tested on: KM12 colon
U251 CNS = tested on: U251 CNS
SW-620 colon = tested on: SW-620 colon
MDA-MB-435 = tested on: MDA-MB-435
NCI/ADR-RES ovarian = tested on: NCI/ADR-RES ovarian
RPMI-8226 leukemia = tested on: RPMI-8226 leukemia
BT-549 breast = tested on: BT-549 breast
SNB-75 CNS = tested on: SNB-75 CNS
PC-3 prostate = tested on: PC-3 prostate
K-562 leukemia = tested on: K-562 leukemia
HS 578T breast = tested on: HS 578T breast
LOX IMVI melanoma = tested on: LOX IMVI melanoma
SK-MEL-2 melanoma = tested on: SK-MEL-2 melanoma
MDA-MB-468 breast = tested on: MDA-MB-468 breast
SF-295 CNS = tested on: SF-295 CNS
MOLT-4 leukemia = tested on: MOLT-4 leukemia
SN12C renal = tested on: SN12C renal
HT29 colon = tested on: HT29 colon
HCT-116 colon = tested on: HCT-116 colon
EKVX NSCLC = tested on: EKVX NSCLC
SK-OV-3 ovarian = tested on: SK-OV-3 ovarian
UACC-257 melanoma = tested on: UACC-257 melanoma
M14 melanoma = tested on: M14 melanoma
NCI-H460 lung = tested on: NCI-H460 lung
MCF7 breast = tested on: MCF7 breast
HOP-92 NSCLC = tested on: HOP-92 NSCLC
COLO 205 colon = tested on: COLO 205 colon
NCI-H23 lung = tested on: NCI-H23 lung
HOP-62 NSCLC = tested on: HOP-62 NSCLC
DU-145 prostate = tested on: DU-145 prostate
CCRF-CEM leukemia = tested on: CCRF-CEM leukemia
SF-539 CNS = tested on: SF-539 CNS
IGROV1 ovarian = tested on: IGROV1 ovarian
T-47D breast = tested on: T-47D breast
HL-60(TB) leukemia = tested on: HL-60(TB) leukemia
SNB-19 CNS = tested on: SNB-19 CNS
786-0 renal = tested on: 786-0 renal
OVCAR-4 ovarian = tested on: OVCAR-4 ovarian
SK-MEL-28 melanoma = tested on: SK-MEL-28 melanoma
UACC-62 melanoma = tested on: UACC-62 melanoma
SK-MEL-5 melanoma = tested on: SK-MEL-5 melanoma
A498 renal = tested on: A498 renal
ACHN renal = tested on: ACHN renal
RXF 393 renal = tested on: RXF 393 renal
CAKI-1 renal = tested on: CAKI-1 renal
OVCAR-5 ovarian = tested on: OVCAR-5 ovarian
HCT-15 colon = tested on: HCT-15 colon
TK-10 renal = tested on: TK-10 renal
SF-268 CNS = tested on: SF-268 CNS
A549 NSCLC = tested on: A549 NSCLC
MALME-3M melanoma = tested on: MALME-3M melanoma
NCI-H522 lung = tested on: NCI-H522 lung
HCC-2998 colon = tested on: HCC-2998 colon
OVCAR-8 ovarian = tested on: OVCAR-8 ovarian
NCI-H226 lung = tested on: NCI-H226 lung

## COc1cccc(-c2ccc(/C=N/NC(=O)c3[nH]c4ccc(Br)cc4c3-c3ccccc3)o2)c1
OVCAR-3 ovarian
  GI50: 2.48 µM
  TGI: 8.6 µM
KM12 colon
  GI50: 3.96 µM
  TGI: 49.6 µM
U251 CNS
  GI50: 3.44 µM
  TGI: 12.7 µM
SW-620 colon
  GI50: 4.6 µM
  TGI: > 100 µM
MDA-MB-435
  GI50: 2.72 µM
  TGI: 8.57 µM
NCI/ADR-RES ovarian
  GI50: 2.4 µM
  TGI: 6.26 µM
RPMI-8226 leukemia
  GI50: 3.05 µM
  TGI: 10.9 µM
BT-549 breast
  GI50: 2.8 µM
  TGI: 7.06 µM
SNB-75 CNS
  GI50: 2.87 µM
  TGI: 15.1 µM
PC-3 prostate
  GI50: 3.96 µM
  TGI: 75 µM
K-562 leukemia
  GI50: 2.89 µM
  TGI: 12.9 µM
HS 578T breast
  GI50: 3.73 µM
  TGI: 41.2 µM
LOX IMVI melanoma
  GI50: 3.84 µM
  TGI: 16.6 µM
SK-MEL-2 melanoma
  GI50: 3.04 µM
  TGI: 9.76 µM
MDA-MB-468 breast
  GI50: 2.29 µM
  TGI: 6.38 µM
SF-295 CNS
  GI50: 3.16 µM
  TGI: 14.1 µM
MOLT-4 leukemia
  GI50: 3.34 µM
  TGI: 12.3 µM
SN12C renal
  GI50: 4.13 µM
  TGI: 18.9 µM
HT29 colon
  GI50: 2.36 µM
  TGI: 5.47 µM
HCT-116 colon
  GI50: 3.33 µM
  TGI: 12.3 µM
EKVX NSCLC
  GI50: 6.71 µM
  TGI: > 100 µM
SK-OV-3 ovarian
  GI50: 3.61 µM
  TGI: 36.2 µM
UACC-257 melanoma
  GI50: 6.86 µM
  TGI: 69.2 µM
M14 melanoma
  GI50: 3.49 µM
  TGI: > 100 µM
NCI-H460 lung
  GI50: 3.26 µM
  TGI: 18 µM
MCF7 breast
  GI50: 3.5 µM
  TGI: > 100 µM
HOP-92 NSCLC
  GI50: 12.8 µM
  TGI: 46 µM
COLO 205 colon
  GI50: 2.48 µM
  TGI: 7.74 µM
NCI-H23 lung
  GI50: 5.23 µM
  TGI: 40.3 µM
HOP-62 NSCLC
  GI50: 3.54 µM
  TGI: 15.3 µM
DU-145 prostate
  GI50: 4.19 µM
  TGI: > 100 µM
CCRF-CEM leukemia
  GI50: 4.19 µM
  TGI: 9.66 µM
SF-539 CNS
  GI50: 2.35 µM
  TGI: 5.51 µM
IGROV1 ovarian
  GI50: 4.6 µM
  TGI: > 100 µM
T-47D breast
  GI50: 7.94 µM
  TGI: > 100 µM
HL-60(TB) leukemia
  GI50: 2.21 µM
  TGI: 5.08 µM
SNB-19 CNS
  GI50: 3.84 µM
  TGI: 20.2 µM
786-0 renal
  GI50: 2.84 µM
  TGI: 8.73 µM
OVCAR-4 ovarian
  GI50: 26.2 µM
  TGI: > 100 µM
SK-MEL-28 melanoma
  GI50: 7.18 µM
  TGI: 52.9 µM
UACC-62 melanoma
  GI50: 4.17 µM
  TGI: > 100 µM
SK-MEL-5 melanoma
  GI50: 2.94 µM
  TGI: 11.3 µM
A498 renal
  GI50: 93.2 µM
  TGI: > 100 µM
ACHN renal
  GI50: 5.43 µM
  TGI: > 100 µM
RXF 393 renal
  GI50: 2.37 µM
  TGI: 5.93 µM
CAKI-1 renal
  GI50: 11.4 µM
  TGI: > 100 µM
OVCAR-5 ovarian
  GI50: 4.31 µM
  TGI: 44.9 µM
HCT-15 colon
  GI50: 3.34 µM
  TGI: 16.9 µM
TK-10 renal
  GI50: 29.1 µM
  TGI: > 100 µM
SF-268 CNS
  GI50: 4.94 µM
  TGI: 48.3 µM
A549 NSCLC
  GI50: 3.55 µM
  TGI: 17.7 µM
MALME-3M melanoma
  GI50: 3.72 µM
  TGI: 32.6 µM
NCI-H522 lung
  GI50: 2 µM
  TGI: 4.72 µM
HCC-2998 colon
  GI50: 4.16 µM
  TGI: 72.9 µM
OVCAR-8 ovarian
  GI50: 2.39 µM
  TGI: 5.57 µM
NCI-H226 lung
  GI50: 10.2 µM
  TGI: 50.6 µM
